The CheMixHub viscosity set

Assay: xn = mol fraction of the nth substance listed

CC(=O)N1CCOCC1 + CCCCO
viscosity [mPa·s], 101 kPa
Conditions	293.15 K	303.15 K	313.15 K	323.15 K
x1 = 0.0555	4.367	3.576	2.739	1.957
x1 = 0.1321	5.668	4.813	3.879	3.051
x1 = 0.2165	6.805	5.881	5.042	4.16
x1 = 0.2844	7.59	6.613	5.581	4.657
x1 = 0.3126	7.757	6.756	5.6	4.662
x1 = 0.4042	8.369	7.294	6.023	5.03
x1 = 0.4673	8.697	7.57	6.22	5.191
x1 = 0.5033	8.878	7.734	6.31	5.257
x1 = 0.5562	9.001	7.801	6.341	5.256
x1 = 0.6237	9.088	7.833	6.29	5.164
x1 = 0.6431	8.989	7.719	6.152	5.014
x1 = 0.6903	9.041	7.732	6.105	4.937
x1 = 0.7439	8.864	7.512	5.819	4.62
x1 = 0.7911	8.713	7.322	5.569	4.342
x1 = 0.8624	8.88	7.431	5.591	4.32
x1 = 0.9222	8.663	7.164	5.249	3.943
x1 = 0.9785	8.737	7.193	5.209	3.868

CCC1CCCCC1 + CCCCO
viscosity [mPa·s], 100 kPa
Conditions	x2 = 0.1001	x2 = 0.2	x2 = 0.3001	x2 = 0.4	x2 = 0.4999	x2 = 0.5997	x2 = 0.7	x2 = 0.8	x2 = 0.9
293.15 K	0.867	0.908	0.984	1.1	1.254	1.451	1.718	2.051	2.436
298.15 K	0.813	0.849	0.912	1.007	1.142	1.314	1.549	1.817	2.157
303.15 K	0.758	0.793	0.851	0.929	1.045	1.202	1.399	1.625	1.911
308.15 K	0.716	0.744	0.794	0.861	0.958	1.08	1.25	1.465	1.711
313.15 K	0.666	0.692	0.729	0.791	0.871	0.98	1.121	1.303	1.515
318.15 K	0.628	0.646	0.681	0.734	0.803	0.894	1.018	1.174	1.351
323.15 K	0.584	0.604	0.633	0.678	0.737	0.814	0.924	1.058	1.219

CCCCCCCCCO + CCCCO
viscosity [mPa·s]
Conditions	293.15 K	298.15 K	308.15 K	318.15 K
101 kPa, x2 = 0.05	–	8.644	6.182	4.486
101 kPa, x2 = 0.1	–	8.219	5.878	4.303
101 kPa, x2 = 0.15	–	7.816	5.598	4.121
101 kPa, x2 = 0.2	–	7.431	5.336	3.941
101 kPa, x2 = 0.25	–	7.062	5.089	3.764
101 kPa, x2 = 0.3	–	6.704	4.852	3.589
101 kPa, x2 = 0.35	–	6.356	4.623	3.418
101 kPa, x2 = 0.4	–	6.016	4.398	3.251
101 kPa, x2 = 0.45	–	5.681	4.177	3.088
101 kPa, x2 = 0.5	–	5.353	3.957	2.929
101 kPa, x2 = 0.55	–	5.029	3.738	2.774
101 kPa, x2 = 0.6	–	4.71	3.52	2.623
101 kPa, x2 = 0.65	–	4.397	3.303	2.477
101 kPa, x2 = 0.7	–	4.091	3.088	2.335
101 kPa, x2 = 0.75	–	3.793	2.877	2.198
101 kPa, x2 = 0.8	–	3.506	2.672	2.064
101 kPa, x2 = 0.85	–	3.234	2.476	1.933
101 kPa, x2 = 0.9	–	2.977	2.292	1.806
101 kPa, x2 = 0.95	–	2.742	2.125	1.681
101.33 kPa, x2 = 0.1608	9.868	–	–	–
101.33 kPa, x2 = 0.2186	–	7.719	–	–
101.33 kPa, x2 = 0.3832	7.621	–	–	–
101.33 kPa, x2 = 0.4166	–	6.168	–	–
101.33 kPa, x2 = 0.5129	–	5.48	–	–
101.33 kPa, x2 = 0.5372	6.237	–	–	–
101.33 kPa, x2 = 0.6368	–	4.634	–	–
101.33 kPa, x2 = 0.6674	5.169	–	–	–
101.33 kPa, x2 = 0.7995	4.296	–	–	–
101.33 kPa, x2 = 0.8253	–	3.486	–	–
101.33 kPa, x2 = 0.8991	3.529	–	–	–
101.33 kPa, x2 = 0.9103	–	3.019	–	–

CC(=O)N(C)C + CCCCn1cc[n+](C)c1.F[B-](F)(F)F
101.33 kPa
Conditions	viscosity [mPa·s]
293.15 K, x2 = 0.8488	74.2
293.15 K, x2 = 0.9175	95.64
298.15 K, x2 = 0.9175	80.5
308.15 K, x2 = 0.437	7.88
323.15 K, x2 = 0.7419	9.78
